1 molecule from patent publication US20190112357A1, “PREVENTION OF PROTEIN DISULFIDE BOND REDUCTION” (MedImmune, LLC, priority 2016, published 2019) can be followed below.

Molecules are shown by their SMILES.

One assay deals with T1, GR/GSSG (Homo sapiens, UniProt P00390).
T1 construct: purchased Abcam
T1 sequence (P00390 44-522): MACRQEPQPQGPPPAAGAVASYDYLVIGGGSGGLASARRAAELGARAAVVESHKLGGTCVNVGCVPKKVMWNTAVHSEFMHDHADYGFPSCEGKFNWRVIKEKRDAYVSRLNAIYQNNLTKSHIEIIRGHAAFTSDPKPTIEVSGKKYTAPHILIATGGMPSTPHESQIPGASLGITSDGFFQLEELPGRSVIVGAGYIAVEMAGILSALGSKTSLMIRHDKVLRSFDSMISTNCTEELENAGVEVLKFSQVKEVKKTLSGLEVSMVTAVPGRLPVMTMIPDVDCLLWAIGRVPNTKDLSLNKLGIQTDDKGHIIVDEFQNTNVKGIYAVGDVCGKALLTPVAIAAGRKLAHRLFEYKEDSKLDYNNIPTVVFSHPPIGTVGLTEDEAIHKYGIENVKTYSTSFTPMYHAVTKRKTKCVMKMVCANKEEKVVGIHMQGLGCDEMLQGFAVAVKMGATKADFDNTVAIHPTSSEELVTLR
Kind of assay: DTNB reductase activity assay, recombinant GR/GSSG. The format is biochemical. As to conditions: ATG concentrations lower than 5 μM. The method, then:
(§1) Briefly, culture samples were thawed on ice. […] The samples were then allowed to incubate 5 minutes.
(§2) Activity of the reductases was calculated as follows. […] The activity was then calculated by the following equation: […]

The test system of assay [1] is GR isolated from CHO cell culture. Kind of assay: mAb B reduction by pooled CHO fractions with NADPH and GSSG. The format is biochemical, Chinese Hamster. The conditions noted are these: 3 μM Cu^2+ or 100 μM ATG, overnight room temperature. The method, then: (§3) Purified mAb B was spiked into several solutions containing different combinations of the pooled fractions (PF), recombinant Trx1, GSSG, NADPH, ATG, and Cu^2+. The solutions were incubated at room temperature overnight and the amount of intact antibody remaining was determined by capillary electrophoresis according to the protocol described above. In the first set of samples, purified mAb B was spiked into the pooled fractions with, and without, NADPH.
In the second set of samples, purified mAb B was spiked into solutions containing the pooled enzymes, NADPH, GSSG, and either no inhibitor, 3 μM Cu^2+, or 100 μM ATG. […] This solution contained GR, GSSG, and NADPH, which are needed for the glutathione system.

Assay [2] deals with TrxR1 purified from CHO cell cultures. Kind of assay: mAb B reduction by pooled CHO fractions with NADPH and Trx1. The conditions noted are these: 3 μM Cu^2+ or 100 μM ATG, overnight room temperature. The format is biochemical, Chinese Hamster. As to the method:
as §3
The third set of solutions contained the pooled enzymes, NADPH, Trx1, and either no inhibitor, 3 μM Cu^2+, or 100 μM ATG. […] In the final sample as a control, mAb B was spiked into a solution containing NADPH, Trx1, and GSSG.

For the next assay, the system named is thioredoxin system. Kind of assay: Reductase activity assay, day 14 culture samples, thioredoxin system. The format is biochemical, Chinese Hamster. The conditions noted are these: day 14, 0.5 μM ATG. As to the method: The total reductase activity was determined in the absence of any inhibitor. […] Thus, the difference in activity between a sample with ATG, and a sample without any inhibitor, indicates the amount of reductase activity contributed the thioredoxin system. […] Thus, the difference in reductase activity between a sample with 2-AAPA, and a sample without any inhibitor, indicates the amount of reductase activity contributed by the glutathione system. Although ATG and 2-AAPA are provided as exemplary specific inhibitors, other specific inhibitors discussed above can be employed in this assay instead of ATG and 2-AAPA.
as §1, §2
The reductase activities of the thioredoxin and glutathione systems were evaluated in day 14 culture samples of the same CHO cell lines A, B, C, and D, using the previously evaluated specific inhibitors 2-AAPA and ATG at 100 μM and 0.5 μM respectively. Data in FIG. 6A were normalized to viable cell density. Cell lines A, B, and C were described in Example 6, above. Cell line D is the cell line CHO CAT-S, and is stably transfected to produce an IgG1 mAb (mAb D).

Turning to `OC[C@H]1O[C@H]([S-])[C@H](O)[C@@H](O)[C@@H]1O.[Au+]` [ATG, aurothioglucose], the “reductase activity of solutions containing GR/GSSG” value on GR/GSSG is recorded as “unaffected”. In addition, the “antibody reduction in pooled enzymes, NADPH, GSSG” value in assay [1] is “did not inhibit antibody reduction”. The “antibody reduction in pooled enzymes, NADPH, Trx1” value in assay [2] is listed as “completely prevented reduction”. Also, the “share of total reductase activity from the thioredoxin system” value in the assay on thioredoxin system (cell line A) is given as 35%; with thioredoxin system (cell line B), 60%; with thioredoxin system (cell line C), 87%; with thioredoxin system (cell line D), 60%.
